Results: patent US20210008541A1, “INSTRUMENT AND METHODS FOR AUTOMATED SAMPLE PREPARATION FOR MICROORGANISM IDENTIFICATION AND DIFFERENTIATION” (Accelerate Diagnostics, Inc., priority 2019, published 2021)

Tests used:
PRMI_IHMA_827374 = assay: Disk diffusion inhibition of RAM ingredients on MHA plates; assay type: cell-based, Proteus mirabilis; conditions: 100 μL dispensed on MHA plate, lawned with PRMI_IHMA_827374
Procedure: (§1) Thus, each of the ingredients was checked for potential inhibition. The first portion of this study was meant to determine the source of inhibition and to formulate different variations of a respiratory artificial matrix (RAM) to use as a pellet former. To complete this objective, 100 μL of each of the ingredients was dispensed onto the center of four different Mueller Hinton Agar (MHA) plates. After letting the plates dry for ˜2 hours they were lawned with the following four bacteria: ECOL_ATCC_25922, SAUR_ATCC_29213, PROV_ATCC_6380 and PRMI_IHMA_827374. The following day the plates were measured for zones of inhibition. Following this, the pellet former recipe was optimized to exclude non-sterile components. […] Many fresh positive specimens of varying viscosities were then tested with an assay that incorporated this pellet former by adding 500 μL to the capsule with 1500 μL of BAL or mini-BAL specimen.

PROV_ATCC_6380 = assay: as above; assay type: cell-based, Proteus vulgaris; conditions: 100 μL dispensed on MHA plate, lawned with PROV_ATCC_6380
Procedure: as §1

SAUR_ATCC_29213 = assay: as above; assay type: cell-based, Staphylococcus aureus; conditions: 100 μL dispensed on MHA plate, lawned with SAUR_ATCC_29213
Procedure: as §1

[1] = system: ECOL_ATCC_25922, SAUR_ATCC_29213, PROV_ATCC_6380 and PRMI_IHMA_827374; assay: Disk diffusion inhibition of RAM ingredients, all four lawned bacteria; assay type: cell-based
Procedure: Thus, each of the ingredients was checked for potential inhibition. […] To complete this objective, 100 μL of each of the ingredients was dispensed onto the center of four different Mueller Hinton Agar (MHA) plates. After letting the plates dry for ˜2 hours they were lawned with the following four bacteria: ECOL_ATCC_25922, SAUR_ATCC_29213, PROV_ATCC_6380 and PRMI_IHMA_827374. The following day the plates were measured for zones of inhibition.

ECOL_ATCC_25922 = assay: Disk diffusion inhibition of RAM ingredients on MHA plates; assay type: cell-based, Escherichia coli; conditions: 100 μL dispensed on MHA plate, lawned with ECOL_ATCC_25922
Procedure: as §1

## O=C(O)CN(CCN(CC(=O)O)CC(=O)O)CCN(CC(=O)O)CC(=O)O [DTPA alone, DTPA]
PRMI_IHMA_827374
  Disk Diffusion Inhibition (zone of inhibition): 30 mm
PROV_ATCC_6380
  Disk Diffusion Inhibition (zone of inhibition): 26 mm
SAUR_ATCC_29213
  Disk Diffusion Inhibition (zone of inhibition): 19 mm
[1]
  Inhibition by disk diffusion method: inhibited each of the organisms tested
ECOL_ATCC_25922
  Disk Diffusion Inhibition (zone of inhibition): 7 mm
